In brackets after ≈: the same amount, converted by molar mass. Read-outs that look alike come from different tables or passages of the source. Marks after values point to notes of the source that are not given here.
Columns and labels:
[1] = test system: Staphylococcus aureus (MRSA) ATCC 700698; test: microbe, parasite or virus in culture
Description: (§1) We used methicillin-susceptible and methicillin-resistant S. aureus as representative pathogens and B. subtilis and S. epidermidis as additional Gram-positive bacteria, and we used E. coli as a Gram-negative control.

[2] = test system: human red blood cells; test: Hemolytic assay; type: cell-based
Description: We evaluated the hemolytic activity of the O-acyl isopeptide prodrugs and the corresponding teixobactin analogues with human red blood cells (Fig. S14–S21 ^†). We used Triton X-100 and melittin as positive controls and vancomycin and water (vehicle) as negative controls in the hemolysis assays.[9,25,26] […] In contrast, 0.002% polysorbate 80 had no effect on the hemolytic activity of Lys10–teixobactin and Leu10–teixobactin and little effect on the corresponding O-acyl isopeptide prodrug analogues. When we performed hemolysis assays with teixobactin, we observed no hemolysis up to 100 μg mL^−1 without polysorbate 80 and modest hemolysis (4%) at 100 μg mL^−1 with 0.002% polysorbate 80. We observed no hemolysis with vancomycin at concentrations up to 100 μg mL^−1, and we observed 26–30% hemolysis with 1.25 μg mL^−1 melittin with and without 0.002% polysorbate 80.

[3] = test system: four Gram-positive bacteria; details: Table 2
Description: as §1

[4] = test system: Staphylococcus aureus (MSSA) ATCC 29213; test: microbe, parasite or virus in culture; details: ATCC29213|MSSA
Description: as §1

[5] = test system: Bacillus subtilis ATCC 6051; test: microbe, parasite or virus in culture
Description: as §1

[6] = test system: Staphylococcus epidermidis ATCC 14990; test: microbe, parasite or virus in culture
Description: as §1

[7] = test system: Escherichia coli ATCC 10798; test: microbe, parasite or virus in culture
Description: as §1

[8] = in the presence of 0.002% polysorbate 80

CC[C@H](C)[C@H](NC(=O)[C@@H](Cc1ccccc1)NC)C(=O)N[C@@H](CO)C(=O)N[C@H](CCC(N)=O)C(=O)N[C@@H](C(=O)N[C@H](C(=O)N[C@@H](CO)C(=O)N[C@H]1C(=O)N[C@@H](C)C(=O)N[C@@H](CC(C)C)C(=O)N[C@@H]([C@@H](C)CC)C(=O)O[C@H]1C)[C@@H](C)CC)[C@@H](C)CC [Leu10–teixobactin]
MIC Staphylococcus aureus (MRSA) ATCC 700698 ([1]; ATCC 700698): 2 ^a μg mL^−1 | Effect of 0.002% polysorbate 80 on the hemolytic activity [2]: no effect

CC[C@H](C)[C@H](NC(=O)[C@@H](Cc1ccccc1)NC)C(=O)N[C@@H](CO)C(=O)N[C@H](CCC(N)=O)C(=O)N[C@@H](C(=O)N[C@H](C(=O)N[C@@H](CO)C(=O)N[C@H]1C(=O)N[C@@H](C)C(=O)N[C@@H](CCCCN)C(=O)N[C@@H]([C@@H](C)CC)C(=O)O[C@H]1C)[C@@H](C)CC)[C@@H](C)CC [Lys10–teixobactin]
MICs (range over the Gram-positive bacteria) [3, 8]: 0.25 to 2 µg/mL | MICs (range over the Gram-positive bacteria) ([3]; without polysorbate 80): 2 to 4 µg/mL | Effect of 0.002% polysorbate 80 on the hemolytic activity [2]: no effect

CN[C@H](CC(C)C)C(=O)N[C@H]1C(=O)N[C@@H](CC(N)=O)C(=O)N[C@H]2C(=O)N[C@H]3C(=O)N[C@H](C(=O)N[C@H](C(=O)O)c4cc(O)cc(O)c4-c4cc3ccc4O)[C@H](O)c3ccc(c(Cl)c3)Oc3cc2cc(c3O[C@@H]2O[C@H](CO)[C@@H](O)[C@H](O)[C@H]2O[C@H]2C[C@](C)(N)[C@H](O)[C@H](C)O2)Oc2ccc(cc2Cl)[C@H]1O [Vancomycin, vancomycin, reference compound]
MIC ([4]; read-out: MIC Staphylococcus aureus (MSSA) ATCC 29213, culture media containing 0% polysorbate 80): 0.5 µg/mL (≈ 0.345 µM) | MIC ([4]; read-out: MIC Staphylococcus aureus (MSSA) ATCC 29213, culture media containing 0.002% polysorbate 80): 1 µg/mL (≈ 0.69 µM) | MIC ([5]; ATCC6051, read-out: MIC Bacillus subtilis ATCC 6051, culture media containing 0% polysorbate 80): 0.125 to 0.25 µg/mL (≈ 0.0863 to 0.173 µM) | MIC ([5]; ATCC6051, read-out: MIC Bacillus subtilis ATCC 6051, culture media containing 0.002% polysorbate 80): 0.5 µg/mL (≈ 0.345 µM) | MIC ([6]; ATCC14990, read-out: MIC Staphylococcus epidermidis ATCC 14990, culture media containing 0% polysorbate 80): 1 µg/mL (≈ 0.69 µM) | MIC ([6]; ATCC14990, read-out: MIC Staphylococcus epidermidis ATCC 14990, culture media containing 0.002% polysorbate 80): 2 µg/mL (≈ 1.38 µM) | MIC ([7]; ATCC10798, read-out: MIC Escherichia coli ATCC 10798, culture media containing 0% polysorbate 80): > 32 µg/mL | MIC ([7]; ATCC10798, read-out: MIC Escherichia coli ATCC 10798, culture media containing 0.002% polysorbate 80): > 8 µg/mL | MIC ([1]; Staphylococcus aureus, ATCC700698|MRSA, read-out: MIC Staphylococcus aureus (MRSA) ATCC 700698): 2 µg/mL (≈ 1.38 µM) | MIC Staphylococcus aureus (MRSA) ATCC 700698 ([1]; culture media containing 0.002% polysorbate 80): 2 ^b μg mL^−1 | MICs (range over the Gram-positive bacteria) [3, 8]: 0.125 to 2 µg/mL | Hemolysis at concentrations up to 100 μg mL^−1 ([2]; negative control): no hemolysis

melittin [reference compound]
Hemolysis at 1.25 μg mL^−1 ([2]; with and without 0.002% polysorbate 80, positive control): 26–30%
